Literature values in patent US20110105600A1, “SYNERGISTIC COMPOSITION OF (-)-HYDROXYCITRIC ACID WITH MONOTERPENE AND A METHOD TO ENHANCE SATIETY” (Glykon Technologies Group, LLC, priority 2009, published 2011).

How the values were obtained:
[1] = end of eight weeks; 2,800 mg/HCA per day in capsules
[2] = single large oral dose or two divided oral doses; animals fed a high-sugar diet
[3] = humans; dosage related to total body surface area
[4] = 40 oz of Mediterranean-style lemonade containing 596 mg d-limonene
[5] = not given; remark: listed apart in the source

## O=C(O)CC(O)(C(=O)O)C(O)C(=O)O (single isomer, unassigned; (-)) [HCA, (−)-hydroxycitric acid]
[1]
  decrease in appetite: approximately 15.6%
[2]
  reduction in food consumption: ≥ 10%
900 mg HCA dissolved in 100 ml tomato juice, 2-week period
  decrease in food intake: 15-30%
900 mg/day, two weeks
  reduction in appetite: 15-30%
2-week period
  weight loss: no significant weight loss

## C=C(C)[C@@H]1CC=C(CO)CC1 [perillyl alcohol]
[3]
  maximum tolerated dose: 8400 mg/m^2 per day

## C=C(C)[C@H]1CC=C(C)CC1 [d-limonene]
[4]
  time to maximal blood concentrations of perillyl alcohol: one
[5]; oral dose of 100 mg/kg
  duration of slight fatigue and eructation: four
[5]; oral dose of 100 mg/kg (bolus of 7 grams for a 70 kg human)
  duration of mild satiety: 10 h

## CC(C)=CCC/C(C)=C/CO [geraniol]
rat
  acute oral LD50: 3,600 mg/kg body weight

## CC(C)=CCC/C(C)=C\CO [nerol]
rat
  acute oral LD50: 4,500 mg/kg body weight
